Key:
Beta-secretase 1 [1] = biological target: T1, Beta-secretase 1 (Homo sapiens, UniProt P56817); experiment: Binding affinity to BACE1 by NMR-based differential chemical shift perturbation method
Beta-secretase 1 [2] = biological target: T1, Beta-secretase 1; experiment: Binding affinity to BACE1 by surface plasmon resonance method

T1 sequence (P56817 whole entry): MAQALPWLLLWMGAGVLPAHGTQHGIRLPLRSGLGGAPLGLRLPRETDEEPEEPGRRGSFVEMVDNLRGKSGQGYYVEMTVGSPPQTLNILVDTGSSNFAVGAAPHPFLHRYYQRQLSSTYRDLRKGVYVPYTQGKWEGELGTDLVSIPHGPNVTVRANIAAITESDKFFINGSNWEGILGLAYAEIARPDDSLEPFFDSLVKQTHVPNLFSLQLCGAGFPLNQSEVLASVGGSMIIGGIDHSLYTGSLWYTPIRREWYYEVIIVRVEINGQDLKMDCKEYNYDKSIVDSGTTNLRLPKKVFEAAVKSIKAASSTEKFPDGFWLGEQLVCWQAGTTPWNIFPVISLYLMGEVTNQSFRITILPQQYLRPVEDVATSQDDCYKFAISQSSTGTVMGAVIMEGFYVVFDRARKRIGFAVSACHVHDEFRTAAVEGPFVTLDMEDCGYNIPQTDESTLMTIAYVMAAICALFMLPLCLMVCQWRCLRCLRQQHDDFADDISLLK

Row | Structure (SMILES) | Kd (Beta-secretase 1 [1]) | Kd (Beta-secretase 1 [2])
1 | Nc1ccc2cc(F)ccc2n1 | 1000 µM | 1280 µM
2 | NC1=Nc2ccccc2Sc2cccc(F)c21 | 400 µM | 325 µM
3 | N=C(N)SCc1c(F)cccc1Cl | 350 µM | 300 µM
4 | Fc1cccc(Cl)c1CN1CCNCC1 | > 1000 µM | > 2000 µM
5 | Nc1ccc2cc(C(F)(F)F)ccc2n1 | – | 3900 µM
6 | Cc1cc(N)nc2ccccc12 | – | 1300 µM
7 | Nc1cc(C(F)(F)F)c2ccccc2n1 | – | 2900 µM
8 | Nc1ccc2cc(-c3ccccc3F)ccc2n1 | – | 39 µM
9 | Nc1ccc2cc(-c3ccccc3C(F)(F)F)ccc2n1 | 200 µM | 200 µM
10 | O=C(NC1CCCCC1)C(F)(F)F | > 1000 µM | –
11 | Cc1ccc2nc(N)ccc2c1 | – | 1600 µM
12 | Fc1cccc(C2NCCc3sccc32)c1 (racemic) | > 1000 µM | > 2000 µM
